This is an account of results in patent publication US11352330B2, “Phenoxymethyl derivatives” (Hoffmann-La Roche Inc., priority 2015, dated 2022).

This experiment addresses human ATX (Homo sapiens (Human), UniProt Q13822). Briefly: Human ATX enzyme inhibition assay (fluorescence quenching, MR121 substrate). The experiment is classed as biochemical. As to conditions: human His-tagged ATX 30 nM, MR121 substrate 1 μM, 30° C. An outline of the steps: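 Human His-tagged ATX (30 nM final) preincubated 15 min at 30 °C with serially diluted compounds in Tris buffer pH 8.0 with Ca2+, Mg2+ and 0.01% Triton X-100. MR121/tryptophan-labelled substrate analogue (1 μM final) then added for 15 min at 30 °C; cleavage read by fluorescence dequenching.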

Structures are written as SMILES.

The IC50 is the concentration that inhibits the measured activity by half. Low values mean greater potency in that assay, high ones weaker potency in that assay.

Consider `Cc1cc(OCc2ccc(=O)[nH]n2)c(C2CCOCC2)cc1Cl` [Example C7, 3-[[4-chloro-5-methyl-2-(oxan-4-yl)phenoxy]methyl]-1H-pyridazin-6-one], for which the IC50 turned out to be 22 nM.

In turn, `Cc1cc(OCc2ccc(=O)[nH]n2)c(C(C)(C)C)cc1Cl` [Example C8, 3-[(2-tert-butyl-4-chloro-5-methylphenoxy)methyl]-1H-pyridazin-6-one] yielded an IC50 of 5 nM.

Molecule `Cc1cc(OCc2ccc(=O)[nH]n2)c(C(C)(C)C#N)cc1Cl` [Example C9, 2-[5-chloro-4-methyl-2-[(6-oxo-1H-pyridazin-3-yl)methoxy]phenyl]-2-methylpropanenitrile] yielded an IC50 of 46 nM.

The molecule `COc1ncccc1-c1cc(Cl)c(C)cc1OCc1ccc(=O)[nH]n1` [Example C10] had an IC50 of 32 nM.

In the case of `Cc1cc(OCc2ccc(=O)[nH]n2)c(-c2cccnc2O)cc1Cl` [Example C11], it took 5980 nM to reach half-maximal inhibition (IC50).

Molecule `N#Cc1cc(-c2ccccc2)c(OCc2ccc(=O)[nH]n2)cc1Cl` [Example C12] came in with an IC50 of 3 nM.

Take `Cc1cc(C(C)(C)C)c(OCc2ccc(=O)[nH]n2)cc1C#N` [Example C13]: the IC50 was found to be 40 nM.

For the molecule `N#Cc1cc(-c2cc(OC3CC3)ccc2F)c(OCc2ccc(=O)[nH]n2)cc1Cl` [Example C14], the IC50 is 5 nM.

`CC(C)(C)c1cc(S(C)(=O)=O)ccc1OCc1n[nH]c2ccccc12` [Example D1] had an IC50 of 245000 nM. This IC50 lies about 49000-fold higher than the previous one.

In turn, `Cc1cc(OCc2n[nH]c3ccccc23)c(C(C)C)cc1Cl` [Example D2, 3-[(4-Chloro-5-methyl-2-propan-2-ylphenoxy)methyl]-1H-indazole] gave an IC50 of 14 nM.

For `Cc1cc(OCc2n[nH]c3ncccc23)c(C(C)(C)C)cc1Cl` [Example D3, 3-[(2-tert-Butyl-4-chloro-5-methylphenoxy)methyl]-1H-pyrazolo[3,4-b]pyridine], inhibition was half-maximal at 4 nM (IC50).

Turning to `Cc1cc(OCc2n[nH]c3ncccc23)c(C(C)(C)C)cc1C#N` [Example D4], 9 nM corresponded to half-maximal inhibition (IC50).

As for `Cc1cc(OCc2n[nH]c3ncccc23)c(-c2ccno2)cc1Cl` [Example D5], the IC50 stood at 1 nM. This IC50 is about 9-fold lower than that of the molecule before.

On to `Cc1cc(OCc2n[nH]c3nc(F)ccc23)c(C(C)(C)C)cc1Cl` [Example D6, 3-[(2-tert-Butyl-4-chloro-5-methylphenoxy)methyl]-6-fluoro-1H-pyrazolo[3,4-b]pyridine], for which the IC50 was 19 nM.

The molecule `Cc1cc(OCc2n[nH]c3nc(NCCO)ccc23)c(C(C)(C)C)cc1Cl` [Example D7, 2-[[3-[(2-tert-Buty-4-chloro-&-methylphenoxy)methyl]-1H-pyrazolo[3,4-b]pyridin-6-yl]amino]ethanol] showed an IC50 of 12 nM.

In turn, `Cc1cc(OCc2n[nH]c3nc(N(C)CCO)ccc23)c(C(C)(C)C)cc1Cl` [Example D8, 2-[[3-[(2-tert-Butyl-4-chloro-5-methylphenoxy)methyl]-1H-pyrazolo[3,4-b]pyridin-6-yl]-methylamino]ethanol] gave an IC50 of 6 nM.

Molecule `Cc1cc(OCc2n[nH]c3ncccc23)c(C(C)(C)C)cc1S(C)(=O)=O` [Example D9] yielded an IC50 of 215 nM.

For `Cc1cc(OCc2n[nH]c3ccccc23)c(C(C)(C)C)cc1S(C)(=O)=O` [Example D10], the IC50 was greater than 82000 nM.

With `CC(C)(C)c1cc(Cl)c(F)cc1OCc1n[nH]c2nc(NCCO)ccc12` [Example D11], the midpoint of inhibition, the IC50, lay at 4.5 nM.

The molecule `CC(C)(C)c1cc(Cl)c(F)cc1OCc1n[nH]c2nc(F)ccc12` [Example D12] showed an IC50 of 1 nM.

Molecule `Cc1cc(OCc2n[nH]c3nc(OCCO)ccc23)c(C(C)(C)C)cc1Cl` [Example D13, 2-[[3-[(2-t-Butyl-4-chloro-&-methylphenoxy)methyl]-1H-pyrazolo[3,4-b]pyridin-6-yl]oxy]ethanol] yielded an IC50 of 13200 nM.

In turn, `CN(CCO)c1ccc2c(COc3cc(F)c(Cl)cc3C(C)(C)C)n[nH]c2n1` [Example D14] gave an IC50 of 13 nM.
